Source: patent US6696607B2 (priority 2000, dated 2004)

Tested on: Phytophthora infestans
Format: in vivo
Details: 63 ppm active ingredient; tomato leaves infected one week after application; assessed after 6 days; untreated plants 100%

Which disease level does the source give for `CO/N=C(/C(=O)NCCc1ccc(OC)c(OC)c1)c1ccc(Cl)cc1` [comparative active ingredient] here?
The disease level was 40%.
